Measured values from US7326689B2, “Pseudomycins useful against plant diseases” (Eli Lilly and Company, priority 2000, dated 2008).
“And” between values parts separate entries of the source, which are not always exact repeats. Equal entries are not always repeated.

Legend:
Assay in all cases: Antifungal growth assay in potato dextrose broth, 24-well
Assay type in all cases: cell-based
[1] = tested on: Drechslera portulacae; conditions: 3x assays
Experimental: (§1) Fungi to be tested were propagated on potato dextrose agar (PDA) plates at room temperature. Stock solutions of pseudomycins and depsipeptide were suspended in dimethylsulfoxide (DMSO) (Sigma) at 5 mg/ml and stored at −20C. Serial dilutions of compounds were done the day of the experiment. All serial dilutions were made in DMSO. […] These are noted in the raw data section.
(§2) Assays were performed in 24-well cell culture clusters (Costar 3524), with 990 ul potato dextrose broth (PDB, Difco) and 10 ul of the compound to be tested in each well. Initial concentrations tested were 50-1.56 ug/ml (final concentration of pseudomycin). Actual concentrations of pseudomycins tested were 50, 25, 12.5, 6.25, 3.12 and 1.56 ug/ml. Each well was inoculated with the appropriate fungus. Unless noted, the fungal inoculum consisted of an ˜4 mm^2 piece of PDA with fungal mycelium. The exceptions were as follows. Ustilago maydis: this fungus grows much like a yeast on PDA, and cells were scraped from the PDA stock plate, resuspended in PDB and 10 ul inoculum added to each well. Monilinia sp.: this fungal mycelium grows as a very loose sheet on top of PDA and would not adhere to agar blocks. Fungal mycelium was ground with a metal rod in 500 ul PDB and 10 ul inoculum was added to each well. Mycosphaeella fijiensis, Septoria passerinii, Septoria triticii: these fungi all grow very slowly and the results were difficult to score if a small piece of agar with fungal mycelium on it was used as an inoculum. For these fungi, the mycelium was ground with a metal rod in 500 ul PDB and 10 ul inoculum was added to each well.
(§3) Wells were scored for fungal growth at two days and five days. Some slow growing fungi were scored at later days for growth because assessment was not possible at two or five days. Growth was scored by comparison to a control consisting of fungus inoculated into 990 ul potato dextrose broth and 10 ul of DMSO (Dimethylsulfoxide). An additional control consisting of fungal inoculum in PDB only was performed to ensure that the DMSO was not inhibitory to fungal growth.
(§4) For assays that were repeated, new stock solutions were made from a second shipment of pseudomycins. Note that pseudomycin B′ and depsipeptide stock solutions were remade from first shipment materials because these were not included in the second shipment. […] Actual concentrations of pseudomycins tested were 2, 1, 0.5, 0.25, 0.125 and 0.0625 ug/ml. A-PO4 and A-FB=pseudomycin A phosphate salt and free base respectively.
(§5) Table 2: Two day results—concentration indicated is lowest level of compound (ug /ml) that results is no growth. NI, no inhibition; p (partial), at least 50% inhibited; -, not determined. If number of assays was greater than one, number of assays performed on the fungus is noted in parentheses. For several slow-growing fungi, days elapsed before observation (if different than two) are noted.
(§6) Table 3: Five day results—concentration indicated is lowest level of compound (ug /ml) that results in no growth. NI, no inhibition; p (partial), at least 50% inhibited; -, not performed on the fungus is noted in parentheses. For several slow-growing fungi, days elapsed before observation (if different than five) are noted.

[2] = tested on: Geotrichim candidum; conditions: 3x assays
Experimental: as §1, §2, §3, §4, §5, §6

[3] = tested on: Monilinia sp.; conditions: 2x assays
Experimental: as §1, §2, §3, §4, §5, §6

[4] = tested on: Mycosphaeella fijiensis (8088/88); conditions: 3x assays
Experimental: as §1, §2, §3, §4, §5, §6

[5] = tested on: Mycosphaeella fijiensis (Sigatoka); conditions: 3x assays
Experimental: as §1, §2, §3, §4, §5, §6

[6] = tested on: Penicillium roqueforti; conditions: 3x assays
Experimental: as §1, §2, §3, §4, §5, §6

[7] = tested on: Rhizoctonia solani; conditions: 2x assays
Experimental: as §1, §2, §3, §4, §5, §6

[8] = tested on: Septoria passerinii; conditions: 3x assays
Experimental: as §1, §2, §3, §4, §5, §6

[9] = tested on: Septoria tritici; conditions: 3x assays
Experimental: as §1, §2, §3, §4, §5, §6

[10] = tested on: Ustilago maydis; conditions: 3x assays
Experimental: as §1, §2, §3, §4, §5, §6

[11] = tested on: Alternaria helianthi; set-up: key: NI, no inhibition; p (partial), at least 50% inhibited; conditions: 2x assays
Summary of the method: (§7)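 The endpoint reported is the lowest final concentration yielding no visible fungal growth, read at two days and at five days. Broth cultures were seeded with mycelium and compared to a vehicle-only control. The tested range was 50–1.56 ug/ml.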

[12] = tested on: Bipolaris sorokiniana; set-up: key: NI, no inhibition; p (partial), at least 50% inhibited
Summary of the method: as §7

[13] = tested on: Drechslera teres; set-up: key: NI, no inhibition; p (partial), at least 50% inhibited
Summary of the method: as §7

[14] = tested on: Phyllosticta maydis; set-up: key: NI, no inhibition; p (partial), at least 50% inhibited
Summary of the method: as §7

[15] = tested on: Phytophthora cinnemani; set-up: key: NI, no inhibition; p (partial), at least 50% inhibited
Summary of the method: as §7

[16] = Table 3 (five day results), observed at 9 day
[17] = Table 2 (two day results), observed at 7 day
[18] = Table 3 (five day results), observed at 21 days

Substance: Pseudomycin B
- lowest level of compound that results in no growth [1, 16]: 0.0625 µg/mL and 0.06 µg/mL
- lowest level of compound that results in no growth ([1]; two day results): 0.06 µg/mL
- lowest level of compound that results in no growth ([2]; five day results): 3.12 µg/mL
- lowest level of compound that results in no growth ([2]; two day results): 1.56 µg/mL
- lowest level of compound that results in no growth ([3]; five day results): 6.25 µg/mL
- lowest level of compound that results in no growth ([3]; two day results): 3.13 µg/mL
- lowest level of compound that results in no growth [4, 17]: 0.06 µg/mL
- lowest level of compound that results in no growth ([4]; Table 3 (five day results), observed at 21 days, listed as B): 0.12 µg/mL
- lowest level of compound that results in no growth ([4]; Table 3 (five day results), observed at 21 days, listed as pseudomycin B): 0.125 µg/mL
- lowest level of compound that results in no growth [5, 17]: 0.5 µg/mL
- lowest level of compound that results in no growth [5, 18]: 1 µg/mL
- lowest level of compound that results in no growth ([6]; five day results): 6.25 µg/mL
- lowest level of compound that results in no growth ([6]; two day results): 0.5 µg/mL
- lowest level of compound that results in no growth ([7]; five day results): 50 µg/mL
- lowest level of compound that results in no growth ([7]; two day results): 6.25 µg/mL
- lowest level of compound that results in no growth ([8]; five day results, listed as B): 0.0625 µg/mL and 0.06 µg/mL
- lowest level of compound that results in no growth ([8]; two day results): 0.06 µg/mL
- lowest level of compound that results in no growth ([9]; five day results, listed as B): 0.06 µg/mL
- lowest level of compound that results in no growth ([9]; five day results, listed as pseudomycin B): 0.0625 µg/mL
- lowest level of compound that results in no growth ([9]; two day results): 0.06 µg/mL
- lowest level of compound that results in no growth ([10]; five day results): 0.5 µg/mL
- lowest level of compound that results in no growth ([10]; two day results): 0.5 µg/mL
- lowest level of compound that results in no growth ([11]; five day results): 50 µg/mL
- lowest level of compound that results in no growth ([11]; two day results): NI
- lowest level of compound that results in no growth ([12]; five day results): NI
- lowest level of compound that results in no growth ([12]; two day results): NI
- lowest level of compound that results in no growth ([13]; five day results): NI
- lowest level of compound that results in no growth ([13]; two day results): NI
- lowest level of compound that results in no growth ([14]; five day results): 50 µg/mL
- lowest level of compound that results in no growth ([14]; two day results): 50 µg/mL
- lowest level of compound that results in no growth ([15]; five day results): NI
- lowest level of compound that results in no growth ([15]; two day results): NI

Substance: Pseudomycin B′
- lowest level of compound that results in no growth [1, 16]: 0.25 µg/mL
- lowest level of compound that results in no growth ([1]; two day results): 0.12 µg/mL
- lowest level of compound that results in no growth ([2]; five day results): 25 µg/mL
- lowest level of compound that results in no growth ([2]; two day results): 25 µg/mL
- lowest level of compound that results in no growth ([3]; five day results): 25 µg/mL
- lowest level of compound that results in no growth ([3]; two day results): 25 µg/mL
- lowest level of compound that results in no growth [4, 17]: 0.5 µg/mL
- lowest level of compound that results in no growth [4, 18]: 1 µg/mL
- lowest level of compound that results in no growth [5, 17]: 0.5 µg/mL
- lowest level of compound that results in no growth [5, 18]: 1 µg/mL
- lowest level of compound that results in no growth ([6]; five day results): 1.56 µg/mL
- lowest level of compound that results in no growth ([6]; two day results): 1.56 µg/mL
- lowest level of compound that results in no growth ([7]; five day results): 6.25 µg/mL
- lowest level of compound that results in no growth ([7]; two day results): 6.25 µg/mL
- lowest level of compound that results in no growth ([8]; five day results): 0.5 µg/mL
- lowest level of compound that results in no growth ([8]; two day results): 0.5 µg/mL
- lowest level of compound that results in no growth ([9]; five day results): 0.5 µg/mL
- lowest level of compound that results in no growth ([9]; two day results): 0.5 µg/mL
- lowest level of compound that results in no growth ([10]; five day results): 3.12 µg/mL
- lowest level of compound that results in no growth ([10]; two day results): 1.56 µg/mL
- lowest level of compound that results in no growth ([11]; five day results): 25 µg/mL
- lowest level of compound that results in no growth ([11]; two day results): 25 µg/mL
- lowest level of compound that results in no growth ([12]; five day results): NI
- lowest level of compound that results in no growth ([12]; two day results): NI
- lowest level of compound that results in no growth ([13]; five day results): NI
- lowest level of compound that results in no growth ([13]; two day results): NI
- lowest level of compound that results in no growth ([14]; five day results): NI
- lowest level of compound that results in no growth ([14]; two day results): p at 50
- lowest level of compound that results in no growth ([15]; five day results): NI
- lowest level of compound that results in no growth ([15]; two day results): NI
